Patent US20250195536A1, “BICYCLOOCTANE KRAS INHIBITORS” (Incyte Corporation, priority 2023, published 2025)

Key:
KRAS G12D = KRAS G12D (Homo sapiens, UniProt P01116, G12D); test: GDP-GTP exchange assay (KRAS G12D); format: biochemical; conditions: bodipy-GDP/GppNHp exchange with SOS1; 4 h pre-incubation, 2 h reaction;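 note: one dagger IC50 up to 100 nM and two daggers above 100 nM up to 1 μM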
Outline: (§1)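 Bodipy-GDP-loaded KRAS (2.5 nM final) was pre-incubated 4 h at r.t. with inhibitor in Hepes pH 7.5 buffer with MgCl2, then exchange started with GppNHp (500 μM) and SOS1 (150 nM) final. Fluorescence (ex 485/em 520 nm) read after 2 h for G12D, 3 h for G12V; IC50 from four-parameter logistic fit.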

KRAS G12V = KRAS G12V (Homo sapiens, UniProt P01116, G12V); test: GDP-GTP exchange assay (KRAS G12V); format: biochemical; conditions: bodipy-GDP/GppNHp exchange with SOS1; 3 h incubation after GppNHp-SOS1;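 note: one dagger IC50 up to 100 nM and two daggers above 100 nM up to 1 μM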
Outline: as §1

[1] = Caco2 assay (permeability, Papp A-B); format: in vitro ADME; conditions: human, Caco-2, absorptive direction (A-B), 50 μM test compound, 4% BSA in receiver
Outline: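 Caco-2 monolayers, 22-25 days on Transwells, TEER 300 Ω·cm^2, dosed apically with 50 μM compound in HBSS; basolateral HBSS with 4% BSA. 120 min at 37 °C, samples quantified by LCMS; Papp (A-B) from receiver-side cumulative flux slope, donor volume, surface area and initial donor amount.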

Chain of KRAS G12V (P01116 1-188 isoform P01116-2 G12V): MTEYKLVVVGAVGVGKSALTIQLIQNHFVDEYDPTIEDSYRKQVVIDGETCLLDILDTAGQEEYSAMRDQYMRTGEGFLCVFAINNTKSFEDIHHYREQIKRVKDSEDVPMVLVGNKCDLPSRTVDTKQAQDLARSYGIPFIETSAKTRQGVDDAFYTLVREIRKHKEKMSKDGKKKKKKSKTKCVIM
Chain of KRAS G12D (P01116 1-188 isoform P01116-2 G12D): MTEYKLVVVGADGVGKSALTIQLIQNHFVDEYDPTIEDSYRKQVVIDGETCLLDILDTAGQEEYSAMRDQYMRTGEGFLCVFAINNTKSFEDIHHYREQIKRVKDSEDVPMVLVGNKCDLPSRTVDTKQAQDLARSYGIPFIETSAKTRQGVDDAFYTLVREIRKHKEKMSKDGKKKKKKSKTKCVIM

Row | SMILES | G12D_exchange (KRAS_G12D exchange assay IC50) (KRAS G12D) | G12V_exchange (KRAS_G12V exchange assay IC50) (KRAS G12V) | Papp A→B at 120 min, 50 μM [1] [×10⁻⁶ cm/s]
1 | Cc1nc2c(F)c(-c3cccc(Cl)c3Cl)c(CCC#N)cc2c2c1cc([C@H]1[C@H]3C[C@H](CN(c4nc(C(F)(F)F)cs4)C3)N1C(=O)C1CC1)n2[C@H]1[C@H]2CN[C@@H]1C2 (atropisomer, axis not shown; (Ra)) [Example 94, 3-((Ra)-1-((1R,4R,5S)-2-azabicyclo[2.1.1]hexan-5-yl)-2-((1S,5R,7R)-6-(cyclopropanecarbonyl)-3-(4-(trifluoromethyl)thiazol-2-yl)-3,6-diazabicyclo[3.2.1]octan-7-yl)-7-(2,3-dichlorophenyl)-6-fluoro-4-methyl-1H-pyrrolo[3,2-c]quinolin-8-yl)propanenitrile] | † | † | ≤ 0.5
2 | Cc1nc(N2C[C@@H]3C[C@H](C2)N(C(=O)C2CC2)[C@H]3c2cc3c(C)nc4c(F)c(-c5cccc(Cl)c5Cl)c(CCC#N)cc4c3n2[C@H]2[C@H]3CN[C@@H]2C3)sc1C (atropisomer, axis not shown; (Ra)) [Example 95, 3-((Ra)-1-((1R,4R,5S)-2-azabicyclo[2.1.1]hexan-5-yl)-2-((1S,5R,7R)-6-(cyclopropanecarbonyl)-3-(4,5-dimethylthiazol-2-yl)-3,6-diazabicyclo[3.2.1]octan-7-yl)-7-(2,3-dichlorophenyl)-6-fluoro-4-methyl-1H-pyrrolo[3,2-c]quinolin-8-yl)propanenitrile] | † | † | ≤ 0.5
3 | Cc1nc2c(F)c(-c3cccc(Cl)c3Cl)c(CCC#N)cc2c2c1cc([C@H]1[C@H]3C[C@H](CN(c4nc(C#N)cs4)C3)N1C(=O)C1CC1)n2[C@H]1[C@H]2CN[C@@H]1C2 (atropisomer, axis not shown; (Ra)) [Example 96, 2-((1S,5R,7R)-7-((Ra)-1-((1R,4R,5S)-2-azabicyclo[2.1.1]hexan-5-yl)-8-(2-cyanoethyl)-7-(2,3-dichlorophenyl)-6-fluoro-4-methyl-1H-pyrrolo[3,2-c]quinolin-2-yl)-6-(cyclopropanecarbonyl)-3,6-diazabicyclo[3.2.1]octan-3-yl)thiazole-4-carbonitrile] | † | † | ≤ 0.5
4 | Cc1sc(N2C[C@@H]3C[C@H](C2)N(C(=O)C2CC2)[C@H]3c2cc3c(C)nc4c(F)c(-c5cccc(Cl)c5Cl)c(CCC#N)cc4c3n2[C@H]2[C@H]3CN[C@@H]2C3)nc1C#N (atropisomer, axis not shown; (Ra)) [Example 97, 2-((1S,5R,7R)-7-((Ra)-1-((1R,4R,5S)-2-azabicyclo[2.1.1]hexan-5-yl)-8-(2-cyanoethyl)-7-(2,3-dichlorophenyl)-6-fluoro-4-methyl-1H-pyrrolo[3,2-c]quinolin-2-yl)-6-(cyclopropanecarbonyl)-3,6-diazabicyclo[3.2.1]octan-3-yl)-5-methylthiazole-4-carbonitrile] | † | † | ≤ 0.5
5 | Cc1nc(N2C[C@@H]3C[C@H](C2)N(C(=O)C2CC2)[C@H]3c2cc3c(C)nc4c(F)c(-c5cccc(Cl)c5Cl)c(CCC#N)cc4c3n2[C@H]2[C@H]3CN[C@@H]2C3)sc1C#N (atropisomer, axis not shown; (Ra)) [Example 98, 2-((1S,5R,7R)-7-((Ra)-1-((1R,4R,5S)-2-azabicyclo[2.1.1]hexan-5-yl)-8-(2-cyanoethyl)-7-(2,3-dichlorophenyl)-6-fluoro-4-methyl-1H-pyrrolo[3,2-c]quinolin-2-yl)-6-(cyclopropanecarbonyl)-3,6-diazabicyclo[3.2.1]octan-3-yl)-4-methylthiazole-5-carbonitrile] | † | † | ≤ 0.5
6 | CCc1cnc(N2C[C@@H]3C[C@H](C2)N(C(=O)C2CC2)[C@H]3c2cc3c(C)nc4c(F)c(-c5cccc(Cl)c5Cl)c(CCC#N)cc4c3n2[C@H]2[C@H]3CN[C@@H]2C3)s1 (atropisomer, axis not shown; (Ra)) [Example 99, 3-((Ra)-1-((1R,4R,5S)-2-azabicyclo[2.1.1]hexan-5-yl)-2-((1S,5R,7R)-6-(cyclopropanecarbonyl)-3-(5-ethylthiazol-2-yl)-3,6-diazabicyclo[3.2.1]octan-7-yl)-7-(2,3-dichlorophenyl)-6-fluoro-4-methyl-1H-pyrrolo[3,2-c]quinolin-8-yl)propanenitrile] | † | † | ≤ 0.5
7 | Cc1nc2c(F)c(-c3cccc(Cl)c3Cl)c(CCC#N)cc2c2c1cc([C@H]1[C@H]3C[C@H](CN(c4ccon4)C3)N1C(=O)C1CC1)n2[C@H]1[C@H]2CN[C@@H]1C2 (atropisomer, axis not shown; (Ra)) [Example 100, 3-((Ra)-1-((1R,4R,5S)-2-azabicyclo[2.1.1]hexan-5-yl)-2-((1S,5R,7R)-6-(cyclopropanecarbonyl)-3-(isoxazol-3-yl)-3,6-diazabicyclo[3.2.1]octan-7-yl)-7-(2,3-dichlorophenyl)-6-fluoro-4-methyl-1H-pyrrolo[3,2-c]quinolin-8-yl)propanenitrile] | † | † | ≤ 0.5
8 | Cc1sc(N2C[C@@H]3C[C@H](C2)N(C(=O)C2CC2)[C@H]3c2cc3c(C)nc4c(F)c(-c5cccc(Cl)c5Cl)c(CCC#N)cc4c3n2[C@H]2[C@H]3CN[C@@H]2C3)nc1C(C)(F)F (atropisomer, axis not shown; (Ra)) [Example 103, 3-((Ra)-1-((1R,4R,5S)-2-azabicyclo[2.1.1]hexan-5-yl)-2-((1S,5R,7R)-6-(cyclopropanecarbonyl)-3-(4-(1,1-difluoroethyl)-5-methylthiazol-2-yl)-3,6-diazabicyclo[3.2.1]octan-7-yl)-7-(2,3-dichlorophenyl)-6-fluoro-4-methyl-1H-pyrrolo[3,2-c]quinolin-8-yl)propanenitrile] | † | † | ≤ 0.5

Second part, the molecule after the results:

Row | G12D_exchange (KRAS_G12D exchange assay IC50) (KRAS G12D) | G12V_exchange (KRAS_G12V exchange assay IC50) (KRAS G12V) | Papp A→B at 120 min, 50 μM [1] [×10⁻⁶ cm/s] | SMILES
9 | † | † | ≤ 0.5 | Cc1nc2c(F)c(-c3cccc(Cl)c3Cl)c(CCC#N)cc2c2c1cc([C@H]1[C@H]3C[C@H](CN(c4cnsc4)C3)N1C(=O)C1CC1)n2[C@H]1[C@H]2CN[C@@H]1C2 (atropisomer, axis not shown; (Ra)) [Example 104, 3-((Ra)-1-((1R,4R,5S)-2-azabicyclo[2.1.1]hexan-5-yl)-2-((1S,5R,7R)-6-(cyclopropanecarbonyl)-3-(isothiazol-4-yl)-3,6-diazabicyclo[3.2.1]octan-7-yl)-7-(2,3-dichlorophenyl)-6-fluoro-4-methyl-1H-pyrrolo[3,2-c]quinolin-8-yl)propanenitrile]
10 | † | † | ≤ 0.5 | Cc1nc2c(F)c(-c3cccc(Cl)c3Cl)c(CCC#N)cc2c2c1cc([C@H]1[C@H]3C[C@H](CN(c4cc(C)n(C)n4)C3)N1C(=O)C1CC1)n2[C@H]1[C@H]2CN[C@@H]1C2 (atropisomer, axis not shown; (Ra)) [Example 105, 3-((Ra)-1-((1R,4R,5S)-2-azabicyclo[2.1.1]hexan-5-yl)-2-((1S,5R,7R)-6-(cyclopropanecarbonyl)-3-(1,5-dimethyl-1H-pyrazol-3-yl)-3,6-diazabicyclo[3.2.1]octan-7-yl)-7-(2,3-dichlorophenyl)-6-fluoro-4-methyl-1H-pyrrolo[3,2-c]quinolin-8-yl)propanenitrile]
11 | † | † | ≤ 0.5 | Cc1nc2c(F)c(-c3cccc(Cl)c3Cl)c(CCC#N)cc2c2c1cc([C@H]1[C@H]3C[C@H](CN(c4ncc(C5CC5)s4)C3)N1C(=O)C1CC1)n2[C@H]1[C@H]2CN[C@@H]1C2 (atropisomer, axis not shown; (Ra)) [Example 106, 3-((Ra)-1-((1R,4R,5S)-2-azabicyclo[2.1.1]hexan-5-yl)-2-((1S,5R,7R)-6-(cyclopropanecarbonyl)-3-(5-cyclopropylthiazol-2-yl)-3,6-diazabicyclo[3.2.1]octan-7-yl)-7-(2,3-dichlorophenyl)-6-fluoro-4-methyl-1H-pyrrolo[3,2-c]quinolin-8-yl)propanenitrile]
12 | † | † | ≤ 0.5 | Cc1nc2c(F)c(-c3cccc(Cl)c3Cl)c(CCC#N)cc2c2c1cc([C@H]1[C@H]3C[C@H](CN(C(=O)C4CC4)C3)N1C(=O)C1CC1)n2[C@H]1[C@H]2CN[C@@H]1C2 (atropisomer, axis not shown; (Ra)) [Example 107, 3-((Ra)-1-((1R,4R,5S)-2-Azabicyclo[2.1.1]hexan-5-yl)-2-((1 S,5R,7R)-3,6-di(cyclopropanecarbonyl)-3,6-diazabicyclo[3.2.1]octan-7-yl)-7-(2,3-dichlorophenyl)-6-fluoro-4-methyl-1H-pyrrolo[3,2-c]quinolin-8-yl)propanenitrile]
